Columns and labels:
Assay type in all cases: ADME, cell-based
PBMC [1] = assay: Ratio of intracellular drug level to extracellular drug level in human PBMC at 2 ug/ml after 24 hrs
[2] = Intracellular drug level in CEM CCL19 cells at 2 ug/ml after 24 hrs; conditions: human, ccrf-cem
[3] = Increase in accumulation of the drug in CEM CCL19 cells in presence of 50 uM Verapamil relative to control; conditions: human, ccrf-cem
[4] = Increase in accumulation of the drug in CEM CCL19 cells in presence of 50 uM Probenecid relative to control; conditions: human, ccrf-cem
[5] = Intracellular drug level in CEM CCL19 cells at 20 ug/ml after 24 hrs; conditions: human, ccrf-cem
PBMC [6] = assay: Ratio of intracellular drug level to extracellular drug level in human PBMC at 0.2 ug/ml after 24 hrs
[7] = Increase in accumulation of the drug in CEM CCL19 cells in presence of 24 uM Efavirenz relative to control; conditions: human, ccrf-cem
[8] = Ratio of intracellular drug level to extracellular drug level in CEM CCL19 cells at 2 ug/ml after 24 hrs; conditions: human, ccrf-cem
[9] = Ratio of intracellular drug level to extracellular drug level in CEM CCL19 cells at 20 ug/ml after 24 hrs; conditions: human, ccrf-cem
[10] = Increase in accumulation of the drug in CEM CCL19 cells in presence of 50 uM Dipyridamole relative to control; conditions: human, ccrf-cem
[11] = Decrease in accumulation of the drug in CEM CCL19 cells in presence of 28 uM Nevirapine relative to control; parameters: scale not given: the % may be the effect or the level left; conditions: human, ccrf-cem
PBMC [12] = assay: Intracellular drug level in human PBMC at 2 ug/ml after 24 hrs
PBMC [13] = assay: Intracellular drug level in human PBMC at 20 ug/ml after 24 hrs
[14] = Intracellular drug level in CEM CCL19 cells at 0.2 ug/ml after 24 hrs; conditions: human, ccrf-cem
PBMC [15] = assay: Ratio of intracellular drug level to extracellular drug level in human PBMC at 20 ug/ml after 24 hrs
PBMC [16] = assay: Intracellular drug level in human PBMC at 0.2 ug/ml after 24 hrs
[17] = Ratio of intracellular drug level to extracellular drug level in CEM CCL19 cells at 0.2 ug/ml after 24 hrs; conditions: human, ccrf-cem

Ratio (PBMC [1]): 2.7
Drug uptake [2]: 0.2049 µg/mL
Activity [3]: 70%
Activity [4]: 25%
Drug uptake [5]: 0.8423 µg/mL
Ratio (PBMC [6]): 19.2
Activity [7]: 125%
Ratio [8]: 0.1
Ratio [9]: 0.04
Activity [10]: 125%
Activity [11]: 50%
Drug uptake (PBMC [12]): 5.409 µg/mL
Drug uptake (PBMC [13]): 12.048 µg/mL
Drug uptake [14]: 0.0887 µg/mL
Ratio (PBMC [15]): 0.602
Drug uptake (PBMC [16]): 3.838 µg/mL
Ratio [17]: 0.44
SMILES: COC(=O)N[C@H](C(=O)N[C@@H](Cc1ccccc1)[C@@H](O)CN(Cc1ccc(-c2ccccn2)cc1)NC(=O)[C@@H](NC(=O)OC)C(C)(C)C)C(C)(C)C [ATAZANAVIR]
